Data published in patent publication US6194396A, “Benzimidazole compounds as bradykinin antagonists” (Fujisawa Pharmaceutical Co., Ltd., priority 1994, dated 2001).
Where a name gives a salt, the structure may show the parent alone.

The molecules below were run against T1, Bradykinin receptor (Cavia porcellus, UniProt O70526) (assay: 3H-Bradykinin receptor binding (crude ileum membrane)). Conditions: concentration: 1 × 10^-5 M; 0.06 nM 3H-Bradykinin; guinea pig ileum membrane; room temperature, 60 minutes.
T1 construct: The ileum was removed and homogenized in buffer; from tissue; host or cells: guinea pig ileum, crude membrane suspension (male Hartley strain, given 'Hartly' in the source)
T1 sequence (O70526 1-372): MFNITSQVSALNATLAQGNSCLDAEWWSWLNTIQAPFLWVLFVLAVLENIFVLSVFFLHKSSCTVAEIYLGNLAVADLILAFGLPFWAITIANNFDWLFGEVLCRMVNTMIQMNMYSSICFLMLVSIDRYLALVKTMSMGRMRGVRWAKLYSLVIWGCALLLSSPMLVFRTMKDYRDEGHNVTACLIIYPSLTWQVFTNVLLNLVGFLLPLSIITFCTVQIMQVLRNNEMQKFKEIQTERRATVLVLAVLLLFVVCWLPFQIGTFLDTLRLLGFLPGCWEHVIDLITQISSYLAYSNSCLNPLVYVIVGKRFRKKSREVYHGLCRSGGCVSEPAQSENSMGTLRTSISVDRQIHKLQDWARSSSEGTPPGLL
Parameters: species or system guinea pig (male Hartly strain)
Procedure: ^3 H-Bradykinin receptor binding
(a) Crude ileum membrane preparation
Male Hartly strain guinea pigs were sacrificed by decapitation. The ileum was removed and homogenized in buffer (50 mM trimethylaminoethanesulfonic acid (TES), 1 mM 1,10-phenanthroline pH 6.8). The homogenate was centrifuged (1000 xg, 20 minutes) to remove tissue clumps and the supernatant was centrifuges (100,000 xg, 60 minutes) to yield a pellet. The pellet was resuspended in buffer (50 mM TES, 1 mM 1,10-phenanthroline,140 mg/l bacitracin, 1 mM dithiothreiol, 0.1% bovine serum albumin pH 6.8) and homogenized with a glass-teflon homogenizer to yield suspension which was referred to as crude membrane suspension. The obtained membrane suspension was stored at -80° C. until use.
(b) ^3 H-Bradykinin binding to the membrane
The frozen crude membrane suspension was thawed. In binding assays, ^3 H-Bradykinin (0.06 nM) and drug (1×10^-5 M) were incubated with 50 μl of the membrane suspension at room temperature for 60 minutes in a final volume of 250 μl. Separation of receptor-bound from free 3H-Bradykinin is achieved by immediate filtration under vacuum and washed three times with 5 ml of ice-cold buffer (50 mM Tris-HCl pH 7.5). Non-specific binding was defined as binding in the presence of 0.1 μM Bradykinin. The radioactivity retained on rinsed filters was determined by a liquid-scintillation counter.
For `CNC(=O)c1ccc(/C=C/C(=O)NCC(=O)N(C)c2ccc(C)c(COc3cccc4c3nc(C(C)=O)n4C)c2C)cc1` [15-(9) hydrochloride], the “Inhibition % of ^3 H-Bradykinin binding” value was 94%.
With `CNC(=O)c1ccc(/C=C/C(=O)NCC(=O)N(C)c2ccc(Cl)c(COc3cccc4c(C)c(C)oc34)c2Cl)cc1` [15-(20), 7-[2,6-Dichloro-3-[N-[4-(methylcarbamoyl)cinnamoylglycyl]-N-methylamino]benzyloxy]-2,3-dimethylbenzofuran] the “Inhibition % of ^3 H-Bradykinin binding” value was 98%.
In the case of `CNC(=O)c1ccc(/C=C/C(=O)NCC(=O)N(C)c2ccc(Cl)c(COc3cccc4c3nc(C)n4C)c2Cl)cc1` [Example 7, 4-[2,6-dichloro-3-[N-methyl-N-[4-(methyl-carbamoyl)cinnamoylglycy]amino]benzyloxy]-1,2-dimethyl-1H-benzimidazole], the “Inhibition % of ^3 H-Bradykinin binding” value is reported as 99%.
